Starred links: 1 amine or outer side, 2 acyl side, 3 side chain; linkers in the order of their positions; H or OH if unused. Positions of bridges follow the written chain, without caps; N, C: chain ends. Non-standard residues stand in square brackets, D forms with d. Residues, ends and D or L forms follow the SMILES beside them. Chains are numbered I, II in the order given. Actinocin(9to1) = Cc1c2oc3c(C)ccc(C(=O)[*:1])c3nc-2c(C(=O)[*:2])c(N)c1=O; NMeV = CN[C@H](C(=O)O)C(C)C; Sar = CNCC(=O)O
Key:
rat astrocytes = conditions: Zelenaia et al., 2000; cited from earlier work
hEAAT2 promoter [1] = assay: hEAAT2 promoter luciferase assay of agents in H4 glioma cells (FIG. 12); assay type: cell-based, human; conditions: H4 malignant glioma cells; 10 μM
Procedure: (§1) FIG. 12. Effect of various agents on hEAAT2 promoter activity in H4 human malignant glioma cells. A: ceftriaxone; B: amoxicillin; C: chloramphenicol; D: thiamphenicol; E: vancomycin; F: glycine; G: glutamate; H: DMSO; I: dibutyryl cAMP. H4 is a rare clone of malignant glioma cells that support hEAAT2 promoter activity. H4 cells were seeded at 5×10^4 cells/35-mm plate. Twenty-four h later cells were untreated (CON) or received the indicated compound at a final concentration of 10 μM. Forty-eight h later the cells were transfected with a FL pGL3/EAAT2 luciferase reporter construct (5 μg) plus a pSVβGalactosidase construct (1 μg) using the calcium phosphate precipitation method (Su et al. 2003, Proc. Natl. Acad. Sci. USA 100:1955-1960). After an additional 48 h, cell lysates were prepared and luciferase activity was determined using the Luciferase Assay System Kit (Promega, E1501) and luminescence determined using a luminometer (Turner Designs, TD20/20) (Su et al. 2003, Proc. Natl. Acad. Sci. USA 100:1955-1960). Data presented are the average of 3 independent plates±S.D. Qualitatively similar results were obtained in 2 additional experiments.
as §1, with “H4, the third cell line examined,” for “FIG. 12. Effect of various agents on hEAAT2 promoter activity in H4 human malignant glioma cells. A: ceftriaxone; B: amoxicillin; C: chloramphenicol; D: thiamphenicol; E: vancomycin; F: glycine; G: glutamate; H: DMSO; I: dibutyryl cAMP. H4”, “activity. In the studies shown in FIG. 12,” for “activity.”

hEAAT2 promoter [2] = assay: hEAAT2 promoter luciferase assay of agents in PHFA (FIG. 10); assay type: cell-based, human; conditions: PHFA passage #3; 10 μM
Procedure: as §1, with “10.” for “12.”, “on primary” for “in H4”, “fetal astrocytes (PHFA).” for “malignant glioma cells.”, “PHFA (passage #3)” for “H4 is a rare clone of malignant glioma cells that support hEAAT2 promoter activity. H4 cells”, “1×10^5” for “5×10^4”
Identification of Agents that Modulate hEAAT2 Promoter Activity. FIGS. 10-12 show the effects of various agents on hEAAT2 promoter activity in PHFA (FIG. 10), PHFA-Im (FIG. 11) and H4 glioma (FIG. 12) cells. In the studies shown in FIG. 10, PHFA (passage #3) were seeded at 1×10^5 cells/35-mm plate. Twenty-four h later cells were untreated (CON) or received the indicated compound at a final concentration of 10 μM. Forty-eight h later the cells were transfected with a FL pGL3/EAAT2 luciferase reporter construct (5 μg) plus a pSVβGalactosidase construct (1 μg) using the calcium phosphate precipitation method (Su et al. 2003, Proc. Natl. Acad. Sci. USA 100:1955-1960). After an additional 48 h, cell lysates were prepared and luciferase activity was determined using the Luciferase Assay System Kit (Promega, E1501) and luminescence determined using a luminometer (Turner Designs, TD20/20) (Su et al. 2003, Proc. Natl. Acad. Sci. USA 100:1955-1960). Data presented are the average of 3 independent plates±S.D. Qualitatively similar results were obtained in 2 additional experiments.

hEAAT2 promoter [3] = assay: hEAAT2 promoter luciferase assay of agents in PHFA-Im (FIG. 11); assay type: cell-based, human; conditions: 10 μM
Procedure: as §1, with “FIG. 11.” for “FIG. 12.”, “in immortalized primary” for “in H4”, “human fetal astrocytes (PHFA-Im).” for “human malignant glioma cells.”, “cAMP. PHFA-Im” for “cAMP. H4”, “a human telomerase-immortalized” for “a rare”, “of primary human fetal astrocytes. PHFA-Im” for “of malignant glioma cells that support hEAAT2 promoter activity. H4”
The effects of these same agents also were examined in two other cell lines to confirm the generality of the findings. […] PHFA-Im is a cell line developed from a clonal isolate of a primary human fetal astrocyte immortalized by transformation with the reverse transcriptase subunit of human telomerase. PHFA-Im cells were seeded at 5×10^4 cells/35-mm plate. Twenty-four h later cells were untreated (CON) or received the indicated compound at a final concentration of 10 μM. Forty-eight h later the cells were transfected with a FL pGL3/EAAT2 luciferase reporter construct (5 μg) plus a pSVβGalactosidase construct (1 μg) using the calcium phosphate precipitation method (Su et al. 2003, Proc. Natl. Acad. Sci. USA 100:1955-1960). After an additional 48 h, cell lysates were prepared and luciferase activity was determined using the Luciferase Assay System Kit (Promega, E1501) and luminescence determined using a luminometer (Turner Designs, TD20/20) (Su et al. 2003, Proc. Natl. Acad. Sci. USA 100:1955-1960). Data presented are the average of 3 independent plates±S.D. Qualitatively similar results were obtained in 2 additional experiments.

| Compound | toxicity (rat astrocytes) | hEAAT2 promoter activity (hEAAT2 promoter [1]) | hEAAT2 promoter activity (hEAAT2 promoter [2]) | hEAAT2 promoter activity (hEAAT2 promoter [3]) |
| --- | --- | --- | --- | --- |
| Cc1c2oc3c(C)ccc(C(=O)N[C@@H]4C(=O)N[C@H](C(C)C)C(=O)N5CCC[C@H]5C(=O)N(C)CC(=O)N(C)[C@@H](C(C)C)C(=O)O[C@@H]4C)c3nc-2c(C(=O)N[C@@H]2C(=O)N[C@H](C(C)C)C(=O)N3CCC[C@H]3C(=O)N(C)CC(=O)N(C)[C@@H](C(C)C)C(=O)O[C@@H]2C)c(N)c1=O [actinomycin D] (I: T[dV]P[Sar][NMeV] / II: T[dV]P[Sar][NMeV]; ester I:1-I:C, II:1-II:C; linker I:N-II:N via Actinocin(9to1)) | toxic | – | – | – |
| CO/N=C(\C(=O)N[C@@H]1C(=O)N2C(C(=O)O)=C(CSc3nc(=O)c(=O)[nH]n3C)CS[C@H]12)c1csc(N)n1 [ceftriaxone] | – | potent stimulators | potent stimulators | potent stimulators |
| O=C(N[C@H](CO)[C@H](O)c1ccc([N+](=O)[O-])cc1)C(Cl)Cl [chloramphenicol] | – | potent stimulators | potent stimulators | potent stimulators |
| CS(=O)(=O)c1ccc([C@@H](O)[C@@H](CO)NC(=O)C(Cl)Cl)cc1 [thiamphenicol] | – | potent stimulators | potent stimulators | potent stimulators |

From patent US20060127980A1, “Human excitatory amino acid transporter-2 gene promoter and uses thereof” (priority 2003, published 2006)
